We go through five molecules from paper PMC6152416, “Pharmacological and Toxicological Screening of Novel Benzimidazole-Morpholine Derivatives as Dual-Acting Inhibitors” (Molecules : A Journal of Synthetic Chemistry and Natural …, 2017).

Each structure is given as a SMILES string.

Tested on in one data set: not listed separately
Nature of the data set: Ames MPF genotoxicity assay. In kind it is cell-based, Salmonella typhimurium. Particulars: Salmonella typhimurium; TA100, with/without S9, each concentration level; read-out: fold inductions over baseline. The protocol: The genotoxicity of selected compounds (2b, 2j, 2m) was determined by Ames assay using Ames MPF 98/100 mutagenicity assay sample kit (Xenometrix AG, Allschwil, Switzerland) as previously described elsewhere. Salmonella typhimurium strains, TA98 (frameshift mutations) and TA100 (base-pair substitutions) were used in the assay. The concentration of the compounds was between 16 and 5000 μg/mL, in accordance with the guideline. Compounds were prepared in six different concentrations (5.0, 2.5, 1.25, 0.625, 0.3125, 0.156 mg/mL) in DMSO. Mutagenic potential was determined in the absence or presence of Aroclor™-1254 induced male Sprague–Dawley rat liver microsomal enzyme (S9) mix (Xenometrix AG). Positive controls without S9 mix were 2-nitrofluorene (2.0 μg/mL) and 4-nitroquinoline N-oxide (0.1 μg/mL), whereas 1.0 μg/mL and 2.5 μg/mL of 2-aminoanthracene solutions were used as positive controls with S9 against TA98 and TA100, respectively. Solvent control was prepared with 4% DMSO. The end of an experiment was determined by the change of the indicator medium colour to yellow, which was originating from the decrease of pH due to revertant bacteria. Yellow wells were counted as positive, and compared with the negative control. Fold induction over the negative control and fold induction over the baseline were calculated (Fold induction over the negative control is accepted as the ratio of the mean number of positive wells for the dose concentration divided by the mean number of positive wells for the zero dose (negative) control. Fold induction over the baseline is accepted as the ratio of the mean number of positive wells for the dose concentration divided by zero dose baseline. The zero-dose baseline is obtained by adding one standard deviation to the mean number of positive wells of the zero dose control. If the baseline is less than 1, the value is set to 1 for calculation).
Mutagenicity was determined according to the criteria reported previously. For a baseline value of ≤3, significant increases between 2 and 3-fold of the baseline were classified as weak mutagen, and increases ≥3-fold of the baseline were classified as mutagen. […] As a rule, at least two adjacent doses with significant increases or a significant increase at the highest dose level should be observed for a mutagenic compound. All of the doses were compared according to Student’s t-test at p < 0.05 for statistical significance.
Regarding `COc1ccc(-c2nc3ccccc3n2CCN2CCOCC2)cc1` [Compound 2b, 2-(4-Methoxyphenyl)-1-[2-(morpholin-4-yl)ethyl]-1H-benzimidazole], the fold induction was less than 1.5.
The same measure, in the same setting: for `FC(F)(F)Oc1ccc(-c2nc3ccccc3n2CCN2CCOCC2)cc1` [Compound 2m, 2-(4-Trifluoromethoxyphenyl)-1-[2-(morpholin-4-yl)ethyl]-1H-benzimidazole] the value was less than 1.5.

The target in the next data set is T1, human recombinant MAO-A (Homo sapiens, UniProt P21397).
T1 sequence (P21397 1-527): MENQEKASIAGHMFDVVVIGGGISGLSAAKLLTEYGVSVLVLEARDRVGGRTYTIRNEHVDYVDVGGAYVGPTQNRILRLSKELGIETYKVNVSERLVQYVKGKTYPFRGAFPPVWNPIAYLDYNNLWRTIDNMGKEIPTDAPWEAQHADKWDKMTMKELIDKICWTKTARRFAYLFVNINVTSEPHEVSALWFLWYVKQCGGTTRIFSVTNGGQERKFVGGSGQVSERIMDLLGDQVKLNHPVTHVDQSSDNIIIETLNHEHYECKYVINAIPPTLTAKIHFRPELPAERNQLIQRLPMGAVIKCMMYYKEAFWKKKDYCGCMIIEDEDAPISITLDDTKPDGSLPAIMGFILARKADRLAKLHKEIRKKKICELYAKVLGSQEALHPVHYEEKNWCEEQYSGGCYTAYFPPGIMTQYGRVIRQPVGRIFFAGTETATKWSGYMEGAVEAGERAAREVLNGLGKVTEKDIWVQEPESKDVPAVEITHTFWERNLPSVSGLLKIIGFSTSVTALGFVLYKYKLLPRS
Nature of the data set: MAO inhibition assay (kynuramine, fluorimetric). In kind it is biochemical. Particulars: 10^-3 M.
With `COc1ccc(-c2nc3ccccc3n2CCN2CCOCC2)cc1` [Compound 2b, 2-(4-Methoxyphenyl)-1-[2-(morpholin-4-yl)ethyl]-1H-benzimidazole], the “MAO-A Inhibition (%)” value amounted to 29.44%.
Same read-out and setting: for `Clc1ccc(-c2nc3ccccc3n2CCN2CCOCC2)cc1` [Compound 2c, 2-(4-Chlorophenyl)-1-[2-(morpholin-4-yl)ethyl]-1H-benzimidazole] the value was 31.58%; for `CC(C)c1ccc(-c2nc3ccccc3n2CCN2CCOCC2)cc1` [Compound 2e, 2-(4-Isopropylphenyl)-1-[2-(morpholin-4-yl)ethyl]-1H-benzimidazole], 24.29%.
Take `CCOc1ccc(-c2nc3ccccc3n2CCN2CCOCC2)cc1` [Compound 2j, 2-(4-Ethoxyphenyl)-1-[2-(morpholin-4-yl)ethyl]-1H-benzimidazole]: the “MAO-A Inhibition (%)” value is 28.47%.
On to `FC(F)(F)Oc1ccc(-c2nc3ccccc3n2CCN2CCOCC2)cc1` [Compound 2m, 2-(4-Trifluoromethoxyphenyl)-1-[2-(morpholin-4-yl)ethyl]-1H-benzimidazole], for which the “MAO-A Inhibition (%)” value came to 34.29%.

The same data set, now with this note: 10^-4 M.
With `COc1ccc(-c2nc3ccccc3n2CCN2CCOCC2)cc1` [Compound 2b, 2-(4-Methoxyphenyl)-1-[2-(morpholin-4-yl)ethyl]-1H-benzimidazole], the “MAO-A Inhibition (%)” value amounted to 24.61%.
Take `Clc1ccc(-c2nc3ccccc3n2CCN2CCOCC2)cc1` [Compound 2c, 2-(4-Chlorophenyl)-1-[2-(morpholin-4-yl)ethyl]-1H-benzimidazole]: the “MAO-A Inhibition (%)” value is 26.17%.
As for `CC(C)c1ccc(-c2nc3ccccc3n2CCN2CCOCC2)cc1` [Compound 2e, 2-(4-Isopropylphenyl)-1-[2-(morpholin-4-yl)ethyl]-1H-benzimidazole], the “MAO-A Inhibition (%)” value came out at 17.31%.
As for `CCOc1ccc(-c2nc3ccccc3n2CCN2CCOCC2)cc1` [Compound 2j, 2-(4-Ethoxyphenyl)-1-[2-(morpholin-4-yl)ethyl]-1H-benzimidazole], the “MAO-A Inhibition (%)” value worked out at 19.42%.
Still for that read-out and setting: for `FC(F)(F)Oc1ccc(-c2nc3ccccc3n2CCN2CCOCC2)cc1` [Compound 2m, 2-(4-Trifluoromethoxyphenyl)-1-[2-(morpholin-4-yl)ethyl]-1H-benzimidazole] the value was 16.39%.
